# Measured values published in patent US11654196B2, “Dosing regimens for echinocandin class compounds” (priority 2012, dated 2023).
# Like-named read-outs stand apart in the source and are kept apart here. *1 amine or outer side, *2 acyl side, *3 side chain or, on linkers, in order; H or OH if unused. Where a SMILES comes first, the peptide text is derived from it. Bridges are numbered along the chain shown (N, C = ends). [ ]: non-standard residue; d: D form. The star is where a group is joined. pTerphenylCO(4''-OnC5H11) = CCCCCOc1ccc(-c2ccc(-c3ccc(C(=O)*)cc3)cc2)cc1; Orn(4R-OH,5R-OH) = O=C([C@H](C[C@@H](O)[C@@H](O)N[*:3])N[*:1])[*:2]; hTyr(3S-OH,4S-OH) = N[C@H](C(=O)O)[C@H](O)[C@@H](O)c1ccc(O)cc1; Pro(3S-OH,4S-Me) = C[C@H]1CN[C@H](C(=O)O)[C@H]1O; Hyp = O=C(O)[C@@H]1C[C@@H](O)CN1
# Columns and labels:
# [1] = Dissolution profile of tableted formulation 17; format: physicochemical
# Experimental: A dissolution study of the tablet of formulation 17 was performed using 500 mL of 100 mM Acetate Buffer pH 5.2 as the medium. The method utilized Apparatus 2 with a paddle speed of 50 rpm, a tablet sinker, and the run time was 60 minutes. […] The HPLC method was a gradient method using an Agilent Zorbax Bonus-RP column (250×4.6 mm) (column temperature of 60° C., wavelength of 300 nm, with Mobile Phase A=33 mM sodium pentanesulfonate pH 4.0 and Mobile Phase B=acetonitrile). The samples were injected neat with an injection volume of 15 μL.
# [2] = Stability in dog plasma; format: in vitro ADME
# Experimental: (§1) Stock solutions of compound 22 and anidulafungin were prepared in DMSO at a concentration of 1 mg/mL. Plasma samples were prepared by mixing plasma with 10% volume of 1 M sodium phosphate, pH 7.4, to minimize pH fluctuation, and stock solution to produce plasma samples containing approximately 10,000 ng/mL compound 22 or anidulafungin. For the stability experiments in PBS buffer, plasma was replaced with phosphate buffered saline, pH 7.4. The DMSO concentration was 1% in the final incubation. Multiple individual aliquots (0.5 mL each) were prepared, capped, and incubated at 37° C. At each stability time point, the reaction was stopped by removing the sample from the incubator and adding 0.5 mL of acetonitrile containing internal standard. Samples were centrifuged for approximately 5 minutes at 10000 rpm to precipitate the proteins. Stability was measured in five different matrices (i.e. rat plasma, dog plasma, monkey plasma, human plasma, and PBS). An aliquot (100 μL) of supernatant of each sample was assayed by HPLC. The percentage of anidulafungin and compound 22 remaining at each time point was calculated by dividing the peak area ratio at each time point by the peak area ratio at time zero.
# [3] = Storage stability of solutions and lyophilized formulations (HPLC); format: physicochemical; conditions: for Loss in potency: clear vial, ambient light, 4 months
# [4] = Pharmacokinetics in chimpanzee, oral dose; format: in vivo
# Experimental: Pharmacokinetic studies were performed in six adult female chimpanzees. Two chimpanzees received 1-mg/kg IV dose of compound 22 formulated in 5% dextrose (60-minute infusion). Two chimpanzees received 10-mg/kg oral dose of compound 22 formulated in 5% citric acid (oral bolus). Two chimpanzees received 1-mg/kg IV dose of anidulafungin formulated as package label (5% dextrose, 60-minute infusion). Plasma samples were collected from all chimps for 10 days to 22 days. PK curves are depicted in FIGS. 16A, 16B, and 18. All pharmacokinetic calculations were performed using WinNonlin version 4.1 (Pharsight Corp) by noncompartmental analysis.
# [5] = Circulating half-life in mouse; format: in vivo; conditions: assays conducted by applicant
# [6] = Stability in monkey plasma; format: in vitro ADME
# Experimental: as §1
# [7] = Man, literature values; cited from earlier work
# [8] = Rabbit, literature values; cited from earlier work
# [9] = Dog, literature values; cited from earlier work
# [10] = Rat, literature values; cited from earlier work
# [11] = Mouse, literature values; cited from earlier work
smiles,measurement,setting,value
CC(=O)[O-].CCCCCOc1ccc(-c2ccc(-c3ccc(C(=O)NC4CC(O)C(OCC[N+](C)(C)C)NC(=O)C5C(O)C(C)CN5C(=O)C(C(C)O)NC(=O)C(C(O)C(O)c5ccc(O)cc5)NC(=O)C5CC(O)CN5C(=O)C(C(C)O)NC4=O)cc3)cc2)cc1 (stereo not shown) [Compound 22],% Compound 22 Dissolved,"[1]; tablet of formulation 17, 100 mM acetate buffer pH 5.2, 5 minutes",23%
same,% Compound 22 Dissolved,"[1]; tablet of formulation 17, 100 mM acetate buffer pH 5.2, 10 minutes",48%
same,% Compound 22 Dissolved,"[1]; tablet of formulation 17, 100 mM acetate buffer pH 5.2, 15 minutes",62%
same,% Compound 22 Dissolved,"[1]; tablet of formulation 17, 100 mM acetate buffer pH 5.2, 30 minutes",93%
same,% Compound 22 Dissolved,"[1]; tablet of formulation 17, 100 mM acetate buffer pH 5.2, 45 minutes",96%
same,% Compound 22 Dissolved,"[1]; tablet of formulation 17, 100 mM acetate buffer pH 5.2, 60 minutes",97%
same,% remaining,"[2]; dog, plasma, 0 h",100%
same,% remaining,"[2]; dog, plasma, 1 h",97.9%
same,% remaining,"[2]; dog, plasma, 2 h",107%
same,% remaining,"[2]; dog, plasma, 4 h",119%
same,% remaining,"[2]; dog, plasma, 8 h",94.0%
same,% remaining,"[2]; dog, plasma, 21 h",87.3%
same,% remaining,"[2]; dog, plasma, 44 h",78.6%
same,Loss in potency,"[3]; 5% Dextrose Solution (1.3 and 1.1 mg/mL) and 0.9% Sterile Saline Solution (1.3 mg/mL), room temperature",less than 5%
same,Loss in potency,"[3]; accelerated aging at 40° C., 5% Dextrose, 20 mM Acetate Buffer pH 4.5, 20 mM Lactate pH 6.0 (3.3 mg/mL)",less than 5%
same,Stability upon storage,[3]; as a solid or in solution,commercially acceptable stability
same,Oral bioavailability,"[4]; chimpanzees, 10-mg/kg oral bolus in 5% citric acid",4.5%
same,Plasma half-life (PO),"[4]; chimpanzees, 10-mg/kg oral bolus in 5% citric acid, mean of 2 chimps",99 h
same,Oral bioavailability used to calculate human circulating concentrations,[4]; values based upon chimpanzee studies,5%
same,Half-life,[5],44 to 71 h
same,% remaining,"[6]; monkey, plasma, 0 h",100%
same,% remaining,"[6]; monkey, plasma, 1 h",109%
same,% remaining,"[6]; monkey, plasma, 2 h",110%
same,% remaining,"[6]; monkey, plasma, 4 h",143%
same,% remaining,"[6]; monkey, plasma, 8 h",115%
same,% remaining,"[6]; monkey, plasma, 21 h",104%
same,% remaining,"[6]; monkey, plasma, 44 h",93.5%
"CCCCCOc1ccc(-c2ccc(-c3ccc(C(=O)N[C@H]4C[C@@H](O)[C@@H](O)NC(=O)[C@@H]5[C@@H](O)[C@@H](C)CN5C(=O)[C@H]([C@@H](C)O)NC(=O)[C@H]([C@H](O)[C@@H](O)c5ccc(O)cc5)NC(=O)[C@@H]5C[C@@H](O)CN5C(=O)[C@H]([C@@H](C)O)NC4=O)cc3)cc2)cc1 [Anidulafungin, anidulafungin, reference compound] ({pTerphenylCO(4''-OnC5H11)}-[Orn(4R-OH,5R-OH)]T[Hyp][hTyr(3S-OH,4S-OH)]T[Pro(3S-OH,4S-Me)]; lactam 1-C)",Half-life,[7],24 to 26 h
same,Half-life,[8],4 to 6 h
same,Half-life,[9],15 h
same,Half-life,[10],18 h
same,% remaining,"[2]; dog plasma, 37° C., 0 h",100%
same,% remaining,"[2]; dog plasma, 37° C., 1 h",100%
same,% remaining,"[2]; dog plasma, 37° C., 2 h",94.8%
same,% remaining,"[2]; dog plasma, 37° C., 4 h",77.1%
same,% remaining,"[2]; dog plasma, 37° C., 8 h",81.1%
same,% remaining,"[2]; dog plasma, 37° C., 21 h",47.2%
same,% remaining,"[2]; dog plasma, 37° C., 44 h",14.6%
same,% remaining,"[6]; monkey plasma, 37° C., 0 h",100%
same,% remaining,"[6]; monkey plasma, 37° C., 1 h",106%
same,% remaining,"[6]; monkey plasma, 37° C., 2 h",111%
same,% remaining,"[6]; monkey plasma, 37° C., 4 h",68.1%
same,% remaining,"[6]; monkey plasma, 37° C., 8 h",76.0%
same,% remaining,"[6]; monkey plasma, 37° C., 21 h",22.4%
same,% remaining,"[6]; monkey plasma, 37° C., 44 h",13.8%
same,Half-life,[11],14 to 20 h
